The values that follow come from patent US7902373B2 (Pfizer Inc, priority 2006, dated 2011).

The term IC50 denotes the point on the concentration scale where inhibition reaches its midpoint.

This experiment concerns the target human recombinant H-PGDS (Homo sapiens, UniProt O60760). In words: Fluorescence intensity h-PGDS TBA enzyme assay. It is filed as biochemical. Particulars: Examples up to 622 (and 3a, 3b).

human recombinant H-PGDS, sequence (O60760 whole entry): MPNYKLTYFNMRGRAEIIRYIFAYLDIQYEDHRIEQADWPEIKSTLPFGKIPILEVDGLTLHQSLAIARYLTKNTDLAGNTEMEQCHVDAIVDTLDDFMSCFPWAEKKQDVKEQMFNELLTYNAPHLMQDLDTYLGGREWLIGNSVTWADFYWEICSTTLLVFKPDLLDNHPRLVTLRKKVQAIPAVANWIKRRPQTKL

Take `Cn1nc(CN2CCC(NC(=O)c3ccc(-c4cccc(F)c4)nc3)CC2)nc1-c1ccccn1` [Example 485, 6-(3-Fluorophenyl)-N-{1-[(1-methyl-5-pyridin-2-yl-1H-1,2,4-triazol-3-yl)methyl]piperidin-4-yl}nicotinamide]: the IC50 is 2.77 nM.
Then `COc1c(C)cnc(CN2CCC(NC(=O)c3ccc(-c4cccc(F)c4)nc3)CC2)c1C` [Example 487], with 0.372 nM.
The same measure for `Cn1nc(-c2ccccn2)nc1CN1CCC(NC(=O)c2ccc(-c3cccc(F)c3)nc2)CC1` [Example 478, 6-(3-Fluorophenyl)-N-{1-[(1-methyl-3-pyridin-2-yl-1H-1,2,4-triazol-5-yl)methyl]piperidin-4-yl}nicotinamide]: 2.01 nM.
Then `O=C(NC1CCN(C2CCC(=O)N(CC3CC3)CC2)CC1)c1ccc(-c2cccc(F)c2)nc1` (stereo not shown) [Example 537, N-{1-[1-(Cyclopropylmethyl)-7-oxoazepan-4-yl]piperidin-4-yl}-6-(3-fluorophenyl)nicotinamide], with 2.68 nM; and `O=C(NC1CCN(Cc2nc(-c3ccc(F)cc3)cs2)CC1)c1ccc(-c2cccc(F)c2)nc1` [Example 407, 6-(3-Fluorophenyl)-N-(1-{[4-(4-fluorophenyl)-1,3-thiazol-2-yl]methyl}piperidin-4-yl)nicotinamide], with 5.4 nM.
Take `CS(=O)(=O)Nc1ccc(CN2CCC(NC(=O)c3ccc(-c4cccc(F)c4)nc3)CC2)cc1` [Example 280, 6-(3-Fluorophenyl)-N-(1-{4-[(methylsulfonyl)amino]benzyl}piperidin-4-yl)nicotinamide]: the IC50 was determined as 0.851 nM.
For the compound `O=C(NC1CCN(Cc2ccccn2)CC1)c1ccc(-c2cccc(F)c2)nc1` [Example 28, 6-(3-Fluorophenyl)-N-[1-(pyridin-2-ylmethyl)piperidin-4-yl]nicotinamide], the IC50 is 1.72 nM.
Then `COc1ncccc1CN1CCC(NC(=O)c2ccc(-c3cccc(F)c3)nc2)CC1` [Example 460, 6-(3-Fluorophenyl)-N-{1-[(2-methoxypyridin-3-yl)methyl]piperidin-4-yl}nicotinamide], with 1.28 nM; and `Cn1ccnc1COc1cc(N2CCC(NC(=O)c3ccc(-c4cccc(F)c4)nc3)CC2)ncn1` [Example 54, 6-(3-Fluorophenyl)-N-(1-{6-[(1-methyl-1H-imidazol-2-yl)methoxy]pyrimidin-4-yl}piperidin-4-yl)nicotinamide], with 1.31 nM; and `Cc1ccc(-n2nnnc2N2CCC(NC(=O)c3ccc(-c4cccc(F)c4)nc3)CC2)cc1` [Example 95, 6-(3-Fluorophenyl)-N-{1-[1-(4-methylphenyl)-1H-tetrazol-5-yl]piperidin-4-yl}nicotinamide], with 0.764 nM.
The same measure for `COc1cc(CN2CCC(NC(=O)c3ccc(-c4cccc(F)c4)nc3)CC2)ccc1F` [Example 192, N-[1-(4-Fluoro-3-methoxybenzyl)piperidin-4-yl]-6-(3-fluorophenyl)nicotinamide]: 0.701 nM; for `O=C(NC1CCN(CC2CCOCC2)CC1)c1ccc(-c2ccccc2)nc1` [Example 6, 6-Phenyl-N-[1-(tetrahydro-2H-pyran-4-ylmethyl)piperidin-4-yl]nicotinamide]: 0.377 nM.
Then `COC(=O)c1cnc(N2CCC(NC(=O)c3ccc(-c4cccc(F)c4)nc3)CC2)cn1` [Example 167, Methyl 5-[4-({[6-(3-fluorophenyl)pyridin-3-yl]carbonyl}amino)piperidin-1-yl]pyrazine-2-carboxylate], with 3.13 nM.
`O=C(NC1CCN(Cc2ccc(F)c(F)c2)CC1)c1ccc(-c2cccc(F)c2)nc1` [Example 193, N-[1-(3,4-difluorobenzyl)piperidin-4-yl]-6-(3-fluorophenyl)nicotinamide]: the half-maximal inhibitory concentration (IC50) is 0.768 nM.
In the case of `CC(C)(C)OC(=O)CCCN1CCC(NC(=O)c2ccc(-c3cccc(F)c3)nc2)CC1` [Example 279, tert-Butyl 4-[4-({[6-(3-fluorophenyl)pyridin-3-yl]carbonyl}amino)piperidin-1-yl]butanoate], the half-inhibitory concentration (IC50) amounted to 4.17 nM.
Then `O=C(NC1CCN(c2ccc(C(=O)Nc3ccon3)nn2)CC1)c1ccc(-c2cccc(F)c2)nc1` [Example 85, 6-[4-({[6-(3-Fluorophenyl)pyridin-3-yl]carbonyl}amino)piperidin-1-yl]-N-isoxazol-3-ylpyridazine-3-carboxamide], with 0.72 nM; and `CCC(CO)n1cnc2c(N3CCC(NC(=O)c4ccc(-c5cccc(F)c5)nc4)CC3)ncnc21` (single isomer, unassigned) [Example 582, 6-(3-Fluorophenyl)-N-(1-{9-[1-(hydroxymethyl)propyl]-9H-purin-6-yl}piperidin-4-yl)nicotinamide], with 1.22 nM.
The same measure for `CCCN1CCC(NC(=O)c2ccc(-c3cccc(F)c3)nc2)CC1` [Example 591, 6-(3-Fluorophenyl)-N-(1-propylpiperidin-4-yl)nicotinamide]: 5.57 nM; for `O=C(NC1CCN(Cc2ccc(-c3ccn[nH]3)cc2)CC1)c1ccc(-c2cccc(F)c2)nc1` [Example 488, 6-(3-Fluorophenyl)-N-{1-[4-(1H-pyrazol-5-yl)benzyl]piperidin-4-yl}nicotinamide]: 0.489 nM.
Then `Cc1cc(C)n2nc(CN3CCC(NC(=O)c4ccc(-c5cccc(F)c5)nc4)CC3)nc2n1` [Example 504, N-{1-[(5,7-Dimethyl[1,2,4]triazolo[1,5-a]pyrimidin-2-yl)methyl]piperidin-4-yl}-6-(3-fluorophenyl)nicotinamide], with 2.84 nM; and `O=C(NC1CCN(CC(F)(F)F)CC1)c1ccc(-c2ccc(F)cc2)nc1` [Example 9, 6-(4-Fluorophenyl)-N-(1-(2,2,2-trifluoroethyl)piperidin-4-yl)nicotinamide], with 23.6 nM; and `O=C(NC1CCN(Cc2cnc3ccccc3n2)CC1)c1ccc(-c2cccc(F)c2)nc1` [Example 263, 6-(3-Fluorophenyl)-N-[1-(quinoxalin-2-ylmethyl)piperidin-4-yl]nicotinamide], with 1.16 nM.
For the compound `COc1ccc(CN2CCC(NC(=O)c3ccc(-c4cccc(F)c4)nc3)CC2)c(Cl)c1OC` [Example 260, N-[1-(2-Chloro-3,4-dimethoxybenzyl)piperidin-4-yl]-6-(3-fluorophenyl)nicotinamide], the half-inhibitory concentration (IC50) is 0.578 nM.
The same measure for `COc1ccc(-c2cnc(C)nc2N2CCC(NC(=O)c3ccc(-c4cccc(F)c4)nc3)CC2)cc1OC` [Example 44, N-{1-[5-(3,4-Dimethoxyphenyl)-2-methylpyrimidin-4-yl]piperidin-4-yl}-6-(3-fluorophenyl)nicotinamide]: 1.36 nM.
The same measure for `Cn1nncc1CN1CCC(NC(=O)c2ccc(-c3cccc(F)c3)nc2)CC1` [Example 495, 6-(3-Fluorophenyl)-N-{1-[(1-methyl-1H-1,2,3-triazol-5-yl)methyl]piperidin-4-yl}nicotinamide]: 0.409 nM; for `CCOC(=O)Cn1ccc2cc(CN3CCC(NC(=O)c4ccc(-c5cccc(F)c5)nc4)CC3)ccc21` [Example 284, Ethyl (5-{[4-({[6-(3-fluorophenyl)pyridin-3-yl]carbonyl}amino)piperidin-1-yl]methyl}-1H-indol-1-yl)acetate]: 1.43 nM; for `Cn1nccc1-c1nc(N2CCC(NC(=O)c3ccc(-c4cccc(F)c4)nc3)CC2)nc2ccccc12` [Example 56, 6-(3-Fluorophenyl)-N-{1-[4-(1-methyl-1H-pyrazol-5-yl)quinazolin-2-yl]piperidin-4-yl}nicotinamide]: 12.8 nM.
The same measure for `COC1CCCC(N2CCC(NC(=O)c3ccc(-c4cccc(F)c4)nc3)CC2)C1` (stereo not shown) [Example 549, 6-(3-Fluorophenyl)-N-[1-(3-methoxycyclohexyl)piperidin-4-yl]nicotinamide]: 2.26 nM; for `COc1ccc(-c2c(CN3CCC(NC(=O)c4ccc(-c5cccc(F)c5)nc4)CC3)cnn2C)cc1` [Example 499, 6-(3-Fluorophenyl)-N-(1-{[5-(4-methoxyphenyl)-1-methyl-1H-pyrazol-4-yl]methyl}piperidin-4-yl)nicotinamide]: 1.64 nM.
With `CC(C)(CNC(=O)OC(C)(C)C)CN1CCC(NC(=O)c2ccc(-c3cccc(F)c3)nc2)CC1` [Example 347, tert-Butyl {3-[4-({[6-(3-fluorophenyl)pyridin-3-yl]carbonyl}amino)piperidin-1-yl]-2,2-dimethylpropyl}carbamate], the IC50 was 0.578 nM.
Then `COc1cc(C)cc(OC)c1CN1CCC(NC(=O)c2ccc(-c3cccc(F)c3)nc2)CC1` [Example 305, N-[1-(2,6-Dimethoxy-4-methylbenzyl)piperidin-4-yl]-6-(3-fluorophenyl)nicotinamide], with 2.7 nM.
On to `CC(C)(O)c1ccc(CN2CCC(NC(=O)c3ccc(-c4cccc(F)c4)nc3)CC2)cn1` [Example 472, 6-(3-Fluorophenyl)-N-(1-{[6-(1-hydroxy-1-methylethyl)pyridin-3-yl]methyl}piperidin-4-yl)nicotinamide], for which the IC50 was 0.491 nM.
`CC(C)N1CCC(NC(=O)c2ccc(-c3cccc(F)c3)nc2)C1` (stereo not shown) [Example 589, 6-(3-Fluorophenyl)-N-(1-isopropylpyrrolidin-3-yl)nicotinamide]: the IC50 was determined as 33.3 nM.
The same measure for `C=C(C)CN(C)C(=O)c1ccc(N2CCC(NC(=O)c3ccc(-c4cccc(F)c4)nc3)CC2)nc1` [Example 562, 6-[4-({[6-(3-Fluorophenyl)pyridin-3-yl]carbonyl}amino)piperidin-1-yl]-N-methyl-N-(2-methylprop-2-en-1-yl)nicotinamide]: 1.74 nM.
In the case of `O=C(NC1CCN(c2ncccc2C(F)(F)F)CC1)c1ccc(-c2cccc(F)c2)nc1` [Example 135, 6-(3-Fluorophenyl)-N-{1-[3-(trifluoromethyl)pyridin-2-yl]piperidin-4-yl}nicotinamide], the IC50 came to 1.47 nM.
Then `O=C(NC1CCN(c2ncccc2C(=O)N2CCCC2)CC1)c1ccc(-c2cccc(F)c2)nc1` [Example 165, 6-(3-Fluorophenyl)-N-{1-[3-(pyrrolidin-1-ylcarbonyl)pyridin-2-yl]piperidin-4-yl}nicotinamide], with 1.16 nM; and `CCOC(=O)N1CCC(NC(=O)c2ccc(-c3cc(F)ccc3F)nc2)CC1` [Example 584, Ethyl 4-({[6-(2,5-Difluorophenyl)pyridine-3-yl]carbonyl}amino)piperidine-1-carboxylate], with 1.38 nM.
